Measurements taken from patent US20160038435A1 (Teva Pharmaceutical Industries Ltd., priority 2013, published 2016).
Converted amounts (≈) assume the structure as drawn. Structures can show the parent of a compound that is named as a salt. Values belong to the compound of their own block, whether it stands above or below them.

Key:
[1] = Concentration of saturated donor solutions applied onto the skin; format: physicochemical
[2] = Saturation solubilities in solvents; format: physicochemical
Protocol: Saturation solubilities were measured in solvents typically used for incorporating of the drug into the pressure sensitive adhesives (PSA). Additional solubilities were measured in water, Phosphate buffered saline (PBS) Buffer (acceptor medium for skin permeation) and three different donor medium. All solubilities were measured at room temperature.

[3] = system: genes related to antigen presentation; conditions: mainly via the NFkB pathway; cited from earlier work

c of saturated solution ([1]; EtOH/Dodecanol 95/5, saturated solution containing solid API, listed as Laquinimod-Na): 1.17 mg/mL | c of saturated solution ([1]; EtOH/Oleic acid 85/15, saturated solution containing solid API, listed as Laquinimod-Na): 4.30 mg/mL | c of saturated solution ([1]; Propylene glycol (PG)/water 8/2, saturated solution containing solid API, listed as Laquinimod-Na): 10.00 mg/mL
SMILES: CCN(C(=O)c1c(O)c2c(Cl)cccc2n(C)c1=O)c1ccccc1 [Laquinimod Sodium Salt, Laquinimod sodium]

Solubility ([2]; 2-Propanol, room temperature): 1662 µg/mL (≈ 4.66 mM) | Solubility ([2]; Acetone, room temperature): 4884 µg/mL (≈ 13.7 mM) | Solubility ([2]; Ethanol, room temperature): 4098 µg/mL (≈ 11.5 mM) | Solubility ([2]; Ethanol/Dodecanol (95:5), room temperature): 4209 µg/mL (≈ 11.8 mM) | Solubility ([2]; Ethanol/Oleic acid (85:15), room temperature): 4785 µg/mL (≈ 13.4 mM) | Solubility ([2]; Ethylacetate, room temperature): 3909 µg/mL (≈ 11 mM) | Solubility ([2]; PBS pH 7.4, room temperature): 1296 µg/mL (≈ 3.63 mM) | Solubility ([2]; Propylenglycol/water (80:20), room temperature): 1281 µg/mL (≈ 3.59 mM) | Solubility ([2]; Water, room temperature): 24 µg/mL (≈ 0.0673 mM) | Solubility ([2]; n-Heptane, room temperature): 0.6 µg/mL (≈ 0.00168 mM) | c of saturated solution ([1]; EtOH/Dodecanol 95/5, saturated solution containing solid API): 3.49 mg/mL | c of saturated solution ([1]; EtOH/Oleic acid 85/15, saturated solution containing solid API): 3.93 mg/mL | c of saturated solution ([1]; Propylene glycol (PG)/water 8/2, saturated solution containing solid API): 1.22 mg/mL
SMILES: CCN(C(=O)c1c(O)c2c(Cl)cccc2n(C)c1=O)c1ccccc1 [Laquinimod free acid]

SMILES: CCN(C(=O)c1c(O)c2c(Cl)cccc2n(C)c1=O)c1ccccc1 [laquinimod]
effect on genes related to antigen presentation and inflammatory pathways [3]: induced suppression of genes related to antigen presentation and corresponding inflammatory pathways
